Measured values from patent US20190030053A1, “COMPOSITION FOR INCREASING EXPRESSION OF PGC-1alpha” (BENEBIOSIS CO., LTD., priority 2016, published 2019).

Assays:
[1] = tested on: PGC-1α and related genes; test: Gene expression in brain and hippocampus of Parkinson's disease models; assay type: in vivo, rat; conditions: 6-OHDA SD rats, oral 0.1 mg/kg/day
Source text: In order to investigate the changes in gene expression and behavior improvement by the treatment with SL (3′-SL & 6′-SL) compositions in Parkinson's brain disease models, 13-week-old normal SD rats and Parkinson's brain disease models were purchased from Central Lab Animal (Korea). Water was freely accessible, and a commercially available pellet feed (Dooyeul Biotech, Korea) was given for one week. At 14 weeks of age, the SD rats were divided into four groups (composed of 8 animals per group): Eight 14-week-old male SD rats (normal rats; initial body weight, average 355.6±32.3 g) treated with a normal diet were used for a control group. […]
Sialyllactose or DW was orally administered daily. […] The dietary intake and body weight change were measured every 5 days. […]
The gene expression changes by the treatment with SL (3′-SL & 6′-SL) compositions were quantitatively compared in two main organs (brain and hippocampus) associated with bran diseases. RNA was extracted by TRIzol agent (Invitrogen). cDNA was synthesized by using RNA, which has been extracted as above and quantified, and a reverse transcription system (Promega, USA). The expression patterns of PGC-1α and related genes were measured by using pre-designed primers and probes (Applied Biosystems; PGC-1α, Mm00447181_m1, GAPDH, and Mm99999915_q1) for the synthesized cDNA and analysis targets (Fndc5, PGC-1α, Erra, UCP1, BDNF, SOD2, and GPX1). […]

[2] = tested on: ICH models; test: Modified limb placing test (MLPT) in intracerebral hemorrhage (ICH) models; assay type: in vivo, rat; conditions: first day and third day after ICH induction; intraperitoneal
Source text: In order to investigate the changes in ischemic volume and modified limb placing test (MLPT) score by treatment with SL (3′-SL & 6′-SL) compositions in stroke models, 4-week-old mice were purchased from Central Lab Animal (Korea). Water was freely accessible, and a commercially available pellet feed (Dooyeul Biotech, Korea) was given for one week. Stroke models involving temporary and permanent middle cerebral artery (MCA) occlusion and intracerebral hemorrhage (ICH) were fabricated using 6-week-old male Sprague-Dawley rats (weight, average 185.3±15.8 g) and male BALB/c mice weight, average 24.6±3.8 g). […] The model was suspended at 10 cm above a table, and the stretch of the forelimbs toward the table was scored (0 points for normal stretch and 1 point for abnormal fexion). […] The evaluation results for three tasks were scored in the following manner: 0 points for normal performance, 1 point for performance with a delay (at least 2 seconds) or incomplete performance, and 2 points for no performance. […]

CC(=O)N[C@H]1[C@H]([C@H](O)[C@H](O)CO)O[C@@](OC[C@H]2O[C@@H](O[C@H]3[C@H](O)[C@@H](O)[C@H](O)O[C@@H]3CO)[C@H](O)[C@@H](O)[C@H]2O)(C(=O)O)C[C@@H]1O [6′-SL, α-NeuNAc-(2→6)-β-D-Gal-(1→4)-D-Glc]
expression levels of PGC-1α and related genes vs SL non-administration (Parkinson's disease model) group [1]: very high
expression levels of PGC-1α and related genes vs normal control group [1]: somewhat lower
MLPT test score vs control group (neurodegeneration inhibitory effects) [2]: lower

CC(=O)N[C@H]1[C@H]([C@H](O)[C@H](O)CO)O[C@@](O[C@H]2[C@@H](O)[C@@H](CO)O[C@@H](O[C@H]3[C@H](O)[C@@H](O)C(O)O[C@@H]3CO)[C@@H]2O)(C(=O)O)C[C@@H]1O (stereo partly drawn) [3′-SL, α-NeuNAc-(2→3)-β-D-Gal-(1→4)-D-Glc]
expression levels of PGC-1α and related genes vs SL non-administration (Parkinson's disease model) group [1]: relatively low compared with 6′-SL
MLPT test score vs control group (neurodegeneration inhibitory effects) [2]: relatively low compared with 6′-SL
